Data from patent US20190330141A1, “Compositions With A Cooling Effect” (The Procter & Gamble Company, priority 2018, published 2019).
Where a name gives a salt, the structure may show the parent alone. Read-outs that look alike come from different tables or passages of the source.

What was measured:
human TRPM8 = target: T1, human TRPM8 (Homo sapiens, UniProt Q7Z2W7); experiment: TRPM8 Protocol-FLIPR Assay (intracellular Ca2+ in transfected HEK-293 cells); type: cell-based; conditions: for EC50 values compared with Comp 4: comparison with the EC50 value of Comp 4
T1 construct: expressed in transfected cells; host or cells: HEK-293
Method: To determine whether TRPM8 is activated, the intracellular calcium ion (Ca^2+) level was measured from transfected cells with the TRPM8 receptor sequence (SEQ ID NO: 1). HEK-293 (human embryonic kidney) cells stably transfected with human TRPM8 were grown in 15 mL growth medium (high glucose DMEM (Dulbecco's Modification of Eagle's Medium) supplemented with 10% FBS (fetal bovine serum), 100 μg/mL penicillin/streptomycin, 5 μg/mL blasticindin, and 100 μg/mL zeocin) in a 75 cm^2 flask for 3 days at 37° C. in a mammalian cell culture incubator (Forma Scientific Model 3110, Marietta, Ohio) set at 5% CO2. Cells were detached with addition of 2 mL of trypsin-EDTA buffer (GIBCO® 25200, Invitrogen, Grand Island, N.Y.) for about 2-3 min. Trypsin was inactivated by addition of 8 mL growth medium. Cells were transferred to a 50 mL tube and centrifuged at 850 rpm for 3 minutes to remove medium. After centrifugation, a pellet of cells was formed in the bottom of the tube separating them from the supernatant solution. The supernatant was discarded and the cell pellet was suspended in 1 mL of fresh growth medium to which 5 μL (12.5 μg) of Fluo-4 AM (Molecular Probes, Inc., Eugene, Oreg.) calcium indicator was added and incubated for 30 min with gentle shaking. Fluo-4 AM is a fluorescent dye used for quantifying cellular Ca^2+ concentrations in the 100 nM to 1 μM range. At the end of 30 minutes, 45 mL of assay buffer (1×HBSS (Hank's Balanced Salt Solution), 20 mM HEPES (4-(2-Hydroxyethyl)-1-piperazineethanesulfonic acid)) was added to wash cells and the resulting mixture was then centrifuged at 850 rpm for 3 minutes at 20° C. to remove excess buffer and Fluo-4 AM calcium indicator.
The pelleted cells were re-suspended in 10 mL assay buffer and 90 μL aliquots (50,000 cells) per well delivered to a 96-well assay plate containing 10 μL of test compounds (1 mM in assay buffer, final concentration 100 μM) or buffer control and incubated at room temperature for 30 minutes. After 30 minutes, a plate (Falcon 353219, Corning Corning N.Y.) was placed into a fluorometric imaging plate reader (FLIPR384 from Molecular Devices, Sunnyvale, Calif.) and basal fluorescence recorded (excitation wave length 488 nm and emission wave length 510 nm). Then 20 μL of 100 mM of TRPM8 agonist WS5 coolant in the assay buffer was added and fluorescence recorded. For determining the direct effect of test compounds on TRPM8, fluorescence was measured immediately after addition of each compound. Additional discussion of the FLIPR method can be found in Smart et al., Characterization using FLIPR of human vanilloid VR1 receptor pharmacology, European Journal of Pharmacology 417, 51-58 (2001) and Liu et al., Development and validation of a platelet calcium flux assay using a fluorescent imaging plate reader, Analytical Biochemistry 357, 216-224 (2006).
The magnitude of the fluorescence of the active-treated cells was compared to the magnitude of the fluorescence from a benchmark agonist (WS-5), as described above. The percentage of fluorescence as a function of active dose was plotted and a sigmoidal curve was generated. Curve fitting from this dose-response curve yielded the value for TRPM8 EC50 in μM found in TABLE 8.
TRPM8 activation was determined by measuring intracellular calcium ion (Ca^2+) level from transfected cells with the TRPM8 receptor gene, as described in EXAMPLE 12, the results of which are shown in TABLE 8. EC50 values are provided in column 3 of TABLE 8, which measured the concentration of activating compound needed to […]. […]

[1] = concentration where the cooling effect could be clearly recognized; cited from earlier work
[2] = HEK-293 cells stably transfected with human TRPM8, fluorescence compared to benchmark agonist WS-5, dose-response curve fit, read-out: TRPM8 Activity EC50
[3] = less than about 1 μM, 0.6 μM, or the EC50 value of Comp 3, read-out: EC50 values

T1 sequence (Q7Z2W7 whole entry): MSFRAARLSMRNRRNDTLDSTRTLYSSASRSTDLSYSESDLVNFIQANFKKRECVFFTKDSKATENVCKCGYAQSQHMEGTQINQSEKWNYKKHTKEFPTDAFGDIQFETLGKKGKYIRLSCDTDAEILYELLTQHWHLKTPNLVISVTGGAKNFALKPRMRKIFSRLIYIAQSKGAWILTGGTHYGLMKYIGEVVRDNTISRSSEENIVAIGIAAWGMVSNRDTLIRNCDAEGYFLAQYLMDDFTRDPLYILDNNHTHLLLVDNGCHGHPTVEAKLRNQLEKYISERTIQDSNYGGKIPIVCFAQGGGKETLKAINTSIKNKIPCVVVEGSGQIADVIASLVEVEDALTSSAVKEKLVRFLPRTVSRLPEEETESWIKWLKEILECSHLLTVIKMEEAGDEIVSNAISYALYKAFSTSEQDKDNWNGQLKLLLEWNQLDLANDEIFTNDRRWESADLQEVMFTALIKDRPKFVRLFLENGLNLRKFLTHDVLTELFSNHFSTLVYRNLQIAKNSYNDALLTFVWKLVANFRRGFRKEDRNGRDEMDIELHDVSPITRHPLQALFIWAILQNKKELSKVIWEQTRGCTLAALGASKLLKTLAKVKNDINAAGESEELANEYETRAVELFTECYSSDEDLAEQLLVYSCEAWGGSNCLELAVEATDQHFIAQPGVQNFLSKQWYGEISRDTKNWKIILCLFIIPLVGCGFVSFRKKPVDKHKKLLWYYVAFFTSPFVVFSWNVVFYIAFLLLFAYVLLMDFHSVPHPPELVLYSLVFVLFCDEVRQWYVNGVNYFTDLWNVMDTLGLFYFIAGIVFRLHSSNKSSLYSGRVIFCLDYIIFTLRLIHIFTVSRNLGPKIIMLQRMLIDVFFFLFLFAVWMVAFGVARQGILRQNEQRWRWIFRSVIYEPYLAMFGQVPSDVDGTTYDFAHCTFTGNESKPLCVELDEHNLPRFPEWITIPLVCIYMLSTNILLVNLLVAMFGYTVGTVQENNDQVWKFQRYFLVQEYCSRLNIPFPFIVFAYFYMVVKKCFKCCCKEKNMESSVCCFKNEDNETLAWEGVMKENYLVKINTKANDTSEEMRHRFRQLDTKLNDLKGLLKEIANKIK

Row | SMILES | EC50 (human TRPM8; [2]) [µM] | cooling threshold [1] | EC50 (human TRPM8; [3]) [µM] | EC50 values compared with Comp 4 (human TRPM8)
1 | N[C@H](CNC(=O)c1ccccc1)c1ccccc1 [Comp 1, reference compound] | > 10 |  |  | 
2 | Cc1ccc(C(C)C)c(OC(=O)C[C@@H](N)c2ccccc2)c1 [Comp 2, reference compound] | 12 |  |  | 
3 | CC(C)[C@@H]1CC[C@@H](C)C[C@H]1C(=O)Nc1ccc(CC#N)cc1 [Comp 3, reference compound] | 0.6 |  |  | 
4 | CC(C)[C@@H]1CC[C@@H](C)C[C@H]1C(=O)NC[C@@H](NC(=O)[C@H](C)N)c1ccccc1 [Comp 4, reference compound] | 0.009 |  |  | 
5 | CC(C)[C@@H]1CC[C@@H](C)C[C@@H]1O [Compound 1-neomenthol, 1-neomenthol] |  | about 3,000 ppb |  | 
6 | NCC(=O)N[C@H](CNC(=O)c1ccccc1)c1ccccc1 [Compound 1a, (S)-2-((2-benzamido-1-phenylethyl)amino)-2-oxoethan-1-aminium chloride] | 0.655 |  | < 1 | 
7 | C[C@@H](N)C(=O)N[C@H](CNC(=O)c1ccccc1)c1ccccc1 [Compound 1c, (R)-1-(((S)-2-benzamido-1-phenylethyl)amino)-1-oxopropan-2-aminium chloride] | 0.582 |  | < 1 | 
8 | C[C@@H](N)C(=O)N[C@H](CNC(=O)c1cccnc1)c1ccccc1 [Compound 2c, (R)-1-(((S)-2-(nicotinamido)-1-phenylethyl)amino)-1-oxopropan-2-aminium chloride] | 28 |  |  | 
9 | CC(C)=CCC/C(C)=C/C(=O)NC[C@@H](NC(=O)CN)c1ccccc1 [Compound 4a, (S,E)-2-((2-(3,7-dimethylocta-2,6-dienamido)-1-phenylethyl)amino-2-oxoethan-1-aminium chloride] | 1.2 |  |  | 
10 | CC(C)=CCC/C(C)=C/C(=O)NC[C@@H](NC(=O)[C@@H](C)N)c1ccccc1 [Compound 4b, (R)-1-(((S)-2-((E)-3,7-dimethylocta-2,6-dienamido)-1-phenylethyl)amino)-1-oxopropan-2-aminium chloride] | 1.45 |  |  | 
11 | Cc1ccc(C(C)C)c(C(=O)NC[C@@H](NC(=O)CN)c2ccccc2)c1.Cl [Compound 6a, (S)-2-((2-(2-isopropyl-5-methylbenzamido)-1-phenylethyl)amino-2-oxoethan-1-aminium chloride] | 0.0019 |  | < 1 | 
12 | Cc1ccc(C(C)C)c(C(=O)NC[C@@H](NC(=O)CN)c2ccccc2)c1.Cl [Compound 6a] |  |  |  | about the same or less than the EC50 value of Comp 4
13 | Cc1ccc(C(C)C)c(C(=O)NC[C@@H](N)c2ccccc2)c1 [Compound 6b, (S)-2-(2-isopropyl-5-methylbenzamido)-1-phenylethan-1-aminium chloride] | 0.155 |  | < 1 | 
14 | Cc1ccc(C(C)C)c(C(=O)NC[C@@H](NC(=O)[C@@H](C)N)c2ccccc2)c1.Cl [Compound 6c, (R)-1-(((S)-2-(2-isopropyl-5-methylbenzamido)-1-phenylethyl)amino)-1-oxopropan-2-aminium chloride] | 0.0032 |  | < 1 | about the same or less than the EC50 value of Comp 4
15 | Cc1ccc(C(C)C)c(C(=O)NC[C@@H](NC(=O)[C@H](C)N)c2ccccc2)c1.Cl [Compound 6d, (S)-1-(((S)-2-(2-isopropyl-5-methylbenzamido)-1-phenylethyl)amino)-1-oxopropan-2-aminium chloride] | 0.0066 |  | < 1 | about the same or less than the EC50 value of Comp 4
16 | Cc1ccc(C(C)C)c(OC(=O)C[C@@H](NC(=O)CN)c2ccccc2)c1 [Compound 7a, (R)-2-((3-(2-isopropyl-5-methylphenoxy)-3-oxo-1-phenylpropyl)amino-2-oxoethan-1-aminium chloride] | 0.23 |  | < 1 | 
17 | Cc1ccc(C(C)C)c(OC(=O)C[C@@H](NC(=O)[C@@H](C)N)c2ccccc2)c1 [Compound 7b, (R)-1-(((R)-3-(2-isopropyl-5-methylphenoxy)-3-oxo-1-phenylpropyl)amino)-1-oxopropan-2-aminium chloride] | 0.06 |  | < 1 | 
18 | CC(C)C(C)(C(=O)OC[C@@H](NC(=O)[C@H](C)N)c1ccccc1)C(C)C [Compound 8a, (S)-2-((S)-2-aminopropanamido)-2-phenylethyl 2-isopropyl-2,3-dimethylbutanoate hydrochloride] | 0.415 |  | < 1 | 
19 | CC(C)C(C)(C(=O)OC[C@@H](NC(=O)[C@@H](C)N)c1ccccc1)C(C)C [Compound 8b, (S)-2-((R)-2-aminopropanamido)-2-phenylethyl 2-isopropyl-2,3-dimethylbutanoate hydrochloride] | 0.057 |  | < 1 | 
20 | CC(C)C(C)(C(=O)NC[C@@H](OC(=O)CN)c1ccccc1)C(C)C.Cl [Compound 10a, (S)-2-(2-isopropyl-2,3-dimethylbutanamido)-1-phenylethyl glycinate hydrochloride] | 0.00785 |  | < 1 | about the same or less than the EC50 value of Comp 4
21 | NCC(=O)O[C@H](CNC(=O)C12CC3CC(CC(C3)C1)C2)c1ccccc1 [Compound 11a, (S)-2-((3S,5S,7S)-adamantane-1-carboxamido)-1-phenylethyl glycinate hydrochloride] | 0.0172 |  | < 1 | 
22 | CC(C)[C@@H]1CC[C@@H](C)C[C@H]1O [L-menthol] |  | about 800 ppb |  | 
23 | CC(C)[C@@H]1CC[C@@H](C)C[C@@H]1O [d-neomenthol] |  | about 25,000 ppb |  | 
